Test [1] has as its system cRel. The experiment in a line: Yeast two-hybrid cRel, no partner. In kind it is cell-based. From the text: A yeast two-hybrid assay is a cellular method to quantify the degree of interaction between two proteins. This is done by producing constructs that encode for fusion proteins of the two proteins to be studied, in this case ER and c-Rel, with either the transactivating or DNA binding part of the Gal4. The transactivating and DNA binding part of gal are separately not capable of inducing reporter activity of a gal4-responsive β-galactosidase reporter construct. Due to the interaction of the two proteins the transactivating and DNA binding parts of Gal4 will come in close proximity and as a result induction of a gal-responsive reporter will occur. More specificcally, in this embodiment of the invention the estrogen receptor is fused to the DNA binding domain (DBD) of Gal4, whereas c-Rel is fused to the activation domain (AD) of Gal4. The ER/Gal4-DBD fusion protein will bind to Gal4 response elements that are upstream of the reporter gene β-galactosidase in the yeast strain. Interaction between ER and c-Rel is compound dependent, therefore increasing concentrations of compound in the in vitro system will increase the number of ER and cRel molecules that interact, that can be measured as an increase of β-galactosidase reporter activity until saturation levels are reached. The amount of β-galactosidase reporter activity therefore is a measure for the degree of interaction between estrogen receptor and c-Rel.
Table 5. […] In this assay format, ERα (or ERβ) was fused to the DNA binding domain of GAL4 whereas c-Rel (or RelA) was fused to the activation domain of GAL4. Interaction between ER and NF-κB yields a transcriptionally active complex, that induces the LacZ reporter gene which results in quantifiable β-galactosidase activity. n.d. means: not determined.
pKCRE-ERα, pKCRE-ERβ and pNGV1-GR contain the human wild-type estrogen receptor α (ERα), ERβ or GR respectively under control of the SV40 promoter. The pCMV4-c-Rel expression vector was produced by cloning of the coding region of c-Rel into the pCMV4 vector (Andersson et al., 1989). pGL3-ELAM, pGL3-VCAM and pGL3-ICAM have been constructed based on PCR using the sequences as outlined in appendix 1. The luciferase reporter plasmid 3*NF-κB-TK was constructed by inserting three repeats of the NF-κB binding site from the ICAM promoter (van de Stolpe et al.; J. Biol Chem. 269: 6185-6192. 1994) in front of the herpes simplex virus thymidine kinase (HSV-TK) promoter. The TK promoter was cloned into the Bgl II-site of pGL3-basic (Promega). The triple repeat of NF-κB binding sites was constructed by annealing the oligonucleotide primers 5′-[…]-3′ and 5′-[…]-3′ followed by PRC amplification and subcloning in the pCR™2.1 vector. The insert was excised using HindIII, blunted with Klenow DNA polymerase and ligated into the SmaI site of pGL3-tk-luc. 4xERE-TATA Luc (plasmid nr. 460) contains four repeats of an estrogen responsive element followed by a TATA box and a luciferase gene. The pSV-β-Galactosidase (pSVβ) control vector (Promega) served as a positive control vector for monitoring transfection efficiencies of mammalian cells. The SV40 early promoter and enhancer drive transcription of the LacZ gene which encodes the β-Galactosidase enzyme. The yeast 2-hybrid constructs pGAD424-ERα, pGAD424-ERαdAB and pGAD424-ERβ were constructed by cloning respectively the human ERα, the ERα without the AB domain and the human ERβ cDNA in pGAD424. pGAD424-ERα LBD was constructed by cloning the LBD of ERα, obtained by PCR, in the EcoRI and SalI sites of pGAD424 vector. pGBT9-c-Rel was constructed by cloning the c-Rel fragment, obtained by PCR on pCMV4-c-Rel in the EcoRI and BamHI sites of pGBT9. The p65/RelA cDNA was obtained by PCR on the pCMV4-p65.

The subject of test [2] is VCAM gene expression. The experiment in a line: Rabbit atherogenic diet model, VCAM mRNA in aorta bow (RNase protection).

As to `C[C@]12CC[C@@H]3c4ccc(O)cc4CC[C@H]3[C@@H]1CC[C@@H]2O` [Org E2, 17β-estradiol], the β-galactosidase activity in test [1] (E2 0.0003 nM) is 1251; in test [1] (E2 0.003 nM), 1135; in test [1] (E2 0.01 nM), 1093; in test [1] (E2 0.03 nM), 1202; in test [1] (E2 0.1 nM), 1204; in test [1] (E2 0.3 nM) it was 1202. In addition, the β-galactosidase activity in test [1] (E2 1 nM) came to 1145; in test [1] (E2 3 nM), 1246; in test [1] (E2 10 nM), 1146; in test [1] (E2 30 nM) it was 1411; in test [1] (E2 100 nM), 1261. The “VCAM mRNA level (RNase protection, divided by GAPDH signal)” value in test [2] (diet 2 weeks, 4 hours after 3 μg/kg s.c.) is on record as 0.004949; in test [2] (diet 2 weeks, 12 hours after 3 μg/kg s.c.) it was 0.01033; in test [2] (diet 4 weeks, 4 hours after 3 μg/kg s.c.), 0.005097; in test [2] (diet 4 weeks, 12 hours after 3 μg/kg s.c.) it was 0.006225; in test [2] (diet 8 weeks, 4 hours after 3 μg/kg s.c.) it was 0.007292; in test [2] (diet 8 weeks, 12 hours after 3 μg/kg s.c.), 0.009832. Besides, the “VCAM mRNA level (RNase protection, divided by GAPDH signal)” value in test [2] (diet 18 weeks, 4 hours after 3 μg/kg s.c.) was found to be 0.0345; in test [2] (diet 18 weeks, 12 hours after 3 μg/kg s.c.), 0.02017.

The values are drawn from patent US20060051295A1, “Estrogen receptor interaction with a transcription factor” (priority 2002, published 2006).
